Values of other authors, collected in patent publication US6696413B2 (Hexal AG, priority 1995, dated 2004).

Conditions: 16 hours after application of 300 μg of a 5 percent vitamin E solution in ethanol per cm^2

- vitamin E found in the horny layer: 10.7%
- vitamin E found in underlying skin layers: about 40.9%
Substance: vitamin E
